Assays:
Details in all cases: 48 h
P12-Ichikawa = experiment: AUC of viability dose-response curve (% viability x log10 dose units); higher = less sensitive
Procedure, shortened: (§1)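 Leukemia cells adapted to each medium were seeded in 1536-well plates (500 or 1000 cells/well) and given library compounds in DMSO for 48 h at 37°C. The 11 threefold doses spanned 47 μM to 0.79 nM, and CellTiter-Glo One luminescence was normalised per plate to DMSO and cell-free wells before four-parameter log-logistic fitting on log10 dose. Area under the curve was integrated with the trapezoidal rule, scaling curves above full viability and removing curves that failed quality control.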

SEM cells [1] = experiment: as above
Procedure, shortened: as §1

NOMO1 = experiment: as above
Procedure, shortened: as §1

SEM cells [2] = experiment: cell viability relative to DMSO control; higher = less cytotoxic
Procedure, shortened: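 NOMO1 or SEM (500 cells/well) or P12-Ichikawa (1000 cells/well) leukemia cells were adapted for at least four passages in each medium. They were seeded in 1536-well plates (5 μl) and pin-dosed with library compounds in DMSO over an 11-point threefold series, 47 μM to 0.79 nM. CellTiter-Glo One luminescence was read after 48 h at 37°C. Viability is the per-plate percentage relative to DMSO wells, with cell-free wells as background.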

[3] = RPMI 5 mM glucose + 10% dialyzed FBS
[4] = HPLM + 10% dialyzed FBS, 0.000781 µM
[5] = HPLM + 10% dialyzed FBS, 0.00234 µM
[6] = HPLM + 10% dialyzed FBS, 0.00702 µM
[7] = HPLM + 10% dialyzed FBS, 0.0211 µM
[8] = HPLM + 10% dialyzed FBS, 0.0632 µM
[9] = HPLM + 10% dialyzed FBS, 0.19 µM
[10] = HPLM + 10% dialyzed FBS, 0.569 µM
[11] = HPLM + 10% dialyzed FBS, 1.71 µM
[12] = HPLM + 10% dialyzed FBS, 5.12 µM
[13] = HPLM + 10% dialyzed FBS, 15.4 µM
[14] = HPLM + 10% dialyzed FBS, 46.1 µM
[15] = RPMI 5 mM glucose + 10% dialyzed FBS, 0.000781 µM
[16] = RPMI 5 mM glucose + 10% dialyzed FBS, 0.00234 µM
[17] = RPMI 5 mM glucose + 10% dialyzed FBS, 0.00702 µM
[18] = RPMI 5 mM glucose + 10% dialyzed FBS, 0.0211 µM
[19] = RPMI 5 mM glucose + 10% dialyzed FBS, 0.0632 µM
[20] = RPMI 5 mM glucose + 10% dialyzed FBS, 0.19 µM
[21] = RPMI 5 mM glucose + 10% dialyzed FBS, 0.569 µM
[22] = RPMI 5 mM glucose + 10% dialyzed FBS, 1.71 µM
[23] = RPMI 5 mM glucose + 10% dialyzed FBS, 5.12 µM
[24] = RPMI 5 mM glucose + 10% dialyzed FBS, 15.4 µM
[25] = RPMI 5 mM glucose + 10% dialyzed FBS, 46.1 µM

Question: How did the “AUC of viability dose-response curve” value (P12-Ichikawa; HPLM + 10% dialyzed FBS) turn out when `N[S+](=O)([O-])NCCNc1nonc1/C(=N/O)Nc1ccc(F)c(Br)c1` was run?
Answer: The value was 354.

Question: And the “AUC of viability dose-response curve” value (P12-Ichikawa; RPMI 5 mM glucose + 10% FBS)?
Answer: The value was 389.

Question: What about the “AUC of viability dose-response curve” value (P12-Ichikawa; [3]) of the same molecule?
Answer: The value was 401.

Question: What about the “AUC of viability dose-response curve” value (SEM cells [1]; HPLM + 10% dialyzed FBS) of the same molecule?
Answer: The value was 435.

Question: What about the “AUC of viability dose-response curve” value (SEM cells [1]; RPMI 5 mM glucose + 10% FBS) of the same molecule?
Answer: The value was 375.

Question: What about the “AUC of viability dose-response curve” value (SEM cells [1]; [3]) of the same molecule?
Answer: The value was 414.

Question: What about the “AUC of viability dose-response curve” value (NOMO1; HPLM + 10% dialyzed FBS) of the same molecule?
Answer: The value was 353.

Question: And the “AUC of viability dose-response curve” value (NOMO1; RPMI 5 mM glucose + 10% FBS)?
Answer: The value was 373.

Question: What about the “AUC of viability dose-response curve” value (NOMO1; [3]) of the same molecule?
Answer: Its value is 411.

Question: Which results are given for `O=C(O)COCCN1CCN(C(c2ccccc2)c2ccc(Cl)cc2)CC1` (stereo not drawn)?
Answer: AUC of viability dose-response curve (P12-Ichikawa; HPLM + 10% dialyzed FBS): 461; AUC of viability dose-response curve (P12-Ichikawa; RPMI 5 mM glucose + 10% FBS): 461; AUC of viability dose-response curve (P12-Ichikawa; [3]): 455; AUC of viability dose-response curve (SEM cells [1]; HPLM + 10% dialyzed FBS): 465; AUC of viability dose-response curve (SEM cells [1]; RPMI 5 mM glucose + 10% FBS): 453; AUC of viability dose-response curve (SEM cells [1]; [3]): 469; AUC of viability dose-response curve (NOMO1; HPLM + 10% dialyzed FBS): 463; AUC of viability dose-response curve (NOMO1; RPMI 5 mM glucose + 10% FBS): 459; AUC of viability dose-response curve (NOMO1; [3]): 451; cell viability (SEM cells [2]; [4]): 126%; cell viability (SEM cells [2]; [5]): 125%; cell viability (SEM cells [2]; [6]): 117%; cell viability (SEM cells [2]; [7]): 130%; cell viability (SEM cells [2]; [8]): 140%; cell viability (SEM cells [2]; [9]): 132%; cell viability (SEM cells [2]; [10]): 128%; cell viability (SEM cells [2]; [11]): 123%; cell viability (SEM cells [2]; [12]): 111%; cell viability (SEM cells [2]; [13]): 119%; cell viability (SEM cells [2]; [14]): 122%; cell viability (SEM cells [2]; RPMI 5 mM glucose + 10% FBS, 0.000781 µM): 117%; cell viability (SEM cells [2]; RPMI 5 mM glucose + 10% FBS, 0.00234 µM): 118%; cell viability (SEM cells [2]; RPMI 5 mM glucose + 10% FBS, 0.00702 µM): 113%; cell viability (SEM cells [2]; RPMI 5 mM glucose + 10% FBS, 0.0211 µM): 108%; cell viability (SEM cells [2]; RPMI 5 mM glucose + 10% FBS, 0.0632 µM): 116%; cell viability (SEM cells [2]; RPMI 5 mM glucose + 10% FBS, 0.19 µM): 95.4%; cell viability (SEM cells [2]; RPMI 5 mM glucose + 10% FBS, 0.569 µM): 119%; cell viability (SEM cells [2]; RPMI 5 mM glucose + 10% FBS, 1.71 µM): 91%; cell viability (SEM cells [2]; RPMI 5 mM glucose + 10% FBS, 5.12 µM): 113%; cell viability (SEM cells [2]; RPMI 5 mM glucose + 10% FBS, 15.4 µM): 112%; cell viability (SEM cells [2]; RPMI 5 mM glucose + 10% FBS, 46.1 µM): 102%

Question: What does the source list for `COc1cc(OC)c(OC)cc1C=O`?
Answer: AUC of viability dose-response curve (P12-Ichikawa; HPLM + 10% dialyzed FBS): 455; AUC of viability dose-response curve (P12-Ichikawa; RPMI 5 mM glucose + 10% FBS): 440; AUC of viability dose-response curve (P12-Ichikawa; [3]): 429; AUC of viability dose-response curve (SEM cells [1]; HPLM + 10% dialyzed FBS): 439; AUC of viability dose-response curve (SEM cells [1]; RPMI 5 mM glucose + 10% FBS): 450; AUC of viability dose-response curve (SEM cells [1]; [3]): 460; AUC of viability dose-response curve (NOMO1; HPLM + 10% dialyzed FBS): 467; AUC of viability dose-response curve (NOMO1; RPMI 5 mM glucose + 10% FBS): 474; AUC of viability dose-response curve (NOMO1; [3]): 469; cell viability (SEM cells [2]; [4]): 98%; cell viability (SEM cells [2]; [5]): 111%; cell viability (SEM cells [2]; [6]): 111%; cell viability (SEM cells [2]; [7]): 109%; cell viability (SEM cells [2]; [8]): 108%; cell viability (SEM cells [2]; [9]): 113%; cell viability (SEM cells [2]; [10]): 88.7%; cell viability (SEM cells [2]; [11]): 58.6%; cell viability (SEM cells [2]; [12]): 122%; cell viability (SEM cells [2]; [13]): 133%; cell viability (SEM cells [2]; [14]): 139%; cell viability (SEM cells [2]; [15]): 113%; cell viability (SEM cells [2]; [16]): 96.5%; cell viability (SEM cells [2]; [17]): 130%; cell viability (SEM cells [2]; [18]): 144%; cell viability (SEM cells [2]; [19]): 148%; cell viability (SEM cells [2]; [20]): 146%; cell viability (SEM cells [2]; [21]): 94%; cell viability (SEM cells [2]; [22]): 54%; cell viability (SEM cells [2]; [23]): 126%; cell viability (SEM cells [2]; [24]): 162%; cell viability (SEM cells [2]; [25]): 130%

Question: With `CC(=O)OCCN1C(=O)c2c(C)nc3ccc([S+](=O)([O-])N4CCOCC4)cc3c2C1=O` as the molecule, how does the “AUC of viability dose-response curve” value (SEM cells [1]; HPLM + 10% dialyzed FBS) read?
Answer: The value was 471.

Question: And the “AUC of viability dose-response curve” value (SEM cells [1]; RPMI 5 mM glucose + 10% FBS)?
Answer: The value was 445.

Question: What about the “AUC of viability dose-response curve” value (SEM cells [1]; [3]) of the same molecule?
Answer: Its value is 457.

Question: What about the “AUC of viability dose-response curve” value (NOMO1; HPLM + 10% dialyzed FBS) of the same molecule?
Answer: Its value is 337.

Question: And the “AUC of viability dose-response curve” value (NOMO1; RPMI 5 mM glucose + 10% FBS)?
Answer: Its value is 299.

Question: What about the “AUC of viability dose-response curve” value (NOMO1; [3]) of the same molecule?
Answer: The value was 329.

Question: What about the cell viability (SEM cells [2]; [15]) of the same molecule?
Answer: Its cell viability is 112%.

Question: And the cell viability (SEM cells [2]; [16])?
Answer: The cell viability was 114%.

Question: And the cell viability (SEM cells [2]; [17])?
Answer: Its cell viability is 138%.

Question: What about the cell viability (SEM cells [2]; [18]) of the same molecule?
Answer: Its cell viability is 131%.

Question: And the cell viability (SEM cells [2]; [19])?
Answer: The cell viability was 129%.

Question: What about the cell viability (SEM cells [2]; [20]) of the same molecule?
Answer: The cell viability was 148%.

Question: What about the cell viability (SEM cells [2]; [21]) of the same molecule?
Answer: The cell viability was 156%.

Question: What about the cell viability (SEM cells [2]; [22]) of the same molecule?
Answer: The cell viability was 140%.

Question: And the cell viability (SEM cells [2]; [23])?
Answer: Its cell viability is 152%.

Question: And the cell viability (SEM cells [2]; [24])?
Answer: The cell viability was 120%.

Question: What about the cell viability (SEM cells [2]; [25]) of the same molecule?
Answer: The cell viability was 142%.

— the supplement of paper PMC11451515
